# ChEMBL document CHEMBL5604062, “ASAP - ZIKV NS2B-NS3 protease fluorescence dose response” (2024)
# Where “and” joins values, the source holds several entries; their conditions need not be identical. Equal values may be shown once.
# Target: Nonstructural protein 3 (Zika virus, UniProt A0A024AXB9)
# Assay: Functional biochemical assay to identify treatments for viral infectious disease that targets Zika NS2B-NS3 protease. Utilizing a direct enzyme activity measurement method, reading the fluorescence intensity is used to characterize the relative potency of inhibitors as IC50.
# Design: species or system PRVABC59
# Nonstructural protein 3, sequence (A0A024AXB9 whole entry): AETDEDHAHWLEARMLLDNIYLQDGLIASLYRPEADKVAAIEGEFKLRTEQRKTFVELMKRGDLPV
row,SMILES,IC50
1,COC(=O)c1cc2c(cc1NC(=O)c1cc(F)cc3[nH]ncc13)CNC2,0.05 µM and 0.029 µM
2,C#CCn1ccnc(N2CC[C@H](CO)C2)c1=O,> 99.5 µM
3,O=C(Nc1ccc2c(c1)CNC2)c1c[nH]c2ncc(F)cc12,23.3 µM
4,O=C(Nc1cc(Cl)cc(C(=O)Nc2ccc3c(c2)OCO3)c1)OCc1ccccc1,> 99.5 µM
5,C=CC[C@H]1NCc2cc(NC(=O)c3cc(F)cc4c3CC(=O)N4)ccc21,0.156 µM
6,NC(=O)c1cccc(NC(=O)c2cc(Cl)cc(NC(=O)OCc3ccccc3)c2)c1,> 99.5 µM
7,COC(=O)c1cc(Cl)ccc1NS(=O)(=O)c1ccc(Oc2ccccc2Cl)cc1,> 99.5 µM
8,Cc1c(C(=O)Nc2cc(CCCN)ccn2)cc(C#N)n1C,> 25 µM
9,CCn1c(=O)c(N2CCC[C@H]2c2ncccn2)nc2ccccc21,> 99.5 µM
10,c1cc(CN2CCC(c3c[nH]c4cccnc34)CC2)c2cn[nH]c2c1,> 99.5 µM
11,NCc1cccc(NC(=O)[C@H](NS(=O)(=O)c2cccc(Cl)c2)c2ccc(OCc3ccccc3)cc2)c1,57.2 µM
12,NCc1cccc(NC(=O)[C@@H]2CCC[C@]3(CCNC3=O)C2)c1,> 99.5 µM
13,O=C(NS(=O)(=O)C1CC1)c1cc(Cl)ccc1NS(=O)(=O)c1ccc(Oc2ccccc2Cl)cc1,19.5 µM
14,O=C(Nc1ccc2c(c1)CNC2)c1cc(F)cc(C2=CCCOC2)c1,0.295 µM
15,O=C(Nc1ccc2c(c1)CNC2)c1ccc2[nH]cnc2c1,2.95 µM
16,C=CC[C@H]1NCc2cc(NC(=O)c3cccc4c3CC(=O)N4)ccc21,1.15 µM
17,O=Cc1ccc(F)c(C(=O)N2CCN(C3=NCCCN3)CC2)c1,> 99.5 µM
18,Cc1cc(C(=O)Nc2cccc(CN)c2)c2c(n1)CCCC2,> 99.5 µM
19,O=C(O)c1cc2cc(-c3cc(Cl)cn4ncnc34)ccc2[nH]1,> 99.5 µM
20,O=C(O)c1cc(Cl)ccc1NS(=O)(=O)c1ccc(-c2cccnc2)cc1,> 99.5 µM
21,CC[C@@H](C)c1nc(C)cc(N2CCC(n3ncc(N)c3C(F)(F)F)CC2)n1,> 99.5 µM
22,CCn1cc(-c2ccc(OC)c(C)c2)nc(N2CC[C@@H](CO)C2)c1=O,> 99.5 µM

row,SMILES,IC50
1,O=C(O)Cc1cccc(NC(=O)c2cc(Cl)cc(NC(=O)OCc3ccccc3)c2)c1,> 99.5 µM
2,NCc1cc(C=C2CC(C(=O)O)C2)cc(NC(=O)c2cc(Cl)cc(NC(=O)OCc3ccccc3)c2)c1 (centres undefined),9.31 µM
3,C=CC[C@H]1NCc2cc(N[C@H](C(=O)NC(C)C)c3cccc4[nH]ncc34)ccc21,> 25 µM
4,C=CC[C@H](Nc1cncc(Cl)c1)c1cccc(-c2nn[nH]n2)c1,> 99.5 µM
5,Cn1cc(-c2ccc([C@@H](NC(=O)OCc3ccccc3)C(=O)Nc3cccc(CN)c3)cc2)ccc1=O,> 99.5 µM
6,CCn1c(=O)c(N2C[C@H]3COC(C)(C)OC[C@H]3C2)nc2ccccc21,> 99.5 µM
7,CCNC(=O)Nc1cc(Cl)cc(C(=O)Nc2cccc(C3CCNCC3)c2)c1,19.9 µM
8,CC(C)(C)OC(=O)Cc1cc(CN)cc(NC(=O)c2cc(Cl)cc(NC(=O)OCc3ccccc3)c2)c1,> 99.5 µM
9,COc1ncccc1S(=O)(=O)N[C@H](C(=O)Nc1cccc(CN)c1)c1ccc(OCc2ccccc2)cc1,> 99.5 µM
10,O=C1Cc2c(cccc2C(=O)N[C@H]2C[C@@H](c3ncc[nH]3)C2)N1,> 25 µM
11,Cc1c(C(=O)Nc2ccnc(O[C@H]3CCOC3)c2)cc(C2CC2)n1C,> 25 µM
12,O=C(N[C@@H](C(=O)NCC1CCNCC1)c1ccc(OCc2ccccc2)cc1)OCc1ccccc1,> 99.5 µM
13,CC1CCN(CC[C@H]2CCCN2C(=O)Nc2ccc3c(c2)CNC3)CC1,> 25 µM
14,C[S@@+]([O-])c1nncn1Cc1ccc(Cl)s1,> 99.5 µM
15,Cc1c(C(=O)Nc2cccc(CN)c2)cc(C2CCC2)n1C,> 99.5 µM
16,O=C(O)Cc1c[nH]c2cc(-c3cc(Cl)cc(NC(=O)OCc4ccccc4)c3)ccc12,> 99.5 µM
17,O=Cc1ccc(N2CCC(C(=O)Nc3ncc(Br)cc3O)CC2)cc1,54 µM
18,O=C(O)c1cc(Cl)ccc1S(=O)(=O)NC1CCN(Cc2ccc(F)c(F)c2)CC1,> 99.5 µM
19,O=C(Nc1cccc(-c2nnn[nH]2)c1)c1cc(Cl)cc2[nH]ncc12,> 99.5 µM
20,N[C@H]1Cc2ccc(NC(=O)c3cc(Cl)cc(NC(=O)OCc4ccccc4)c3)cc2C1,2.49 µM
21,CCn1c(=O)c(N2CC[C@H](c3nncs3)C2)nc2ccccc21,> 99.5 µM
22,COc1cccc(C2CCN(Cc3c[nH]c4ccccc34)CC2)c1,64.3 µM

row,SMILES,IC50
1,NCc1cccc(NC(=O)[C@@H]2CCCCN2)c1,> 99.5 µM
2,CNc1c(-c2cc(Cl)cc(C3CC3)c2)nc2cc(C(=O)O)ccn12,> 99.5 µM
3,O=C(Nc1cc(Cl)cc(C(=O)Nc2ncc3n2CCNC3)c1)OCc1ccccc1,> 99.5 µM
4,COCCOc1ccc(Cl)cc1C(=O)Nc1cccc(CN)c1,77.5 µM
5,O=C(Nc1cccnc1)c1cc(Cl)ccc1NS(=O)(=O)c1ccc(Oc2ccccc2Cl)cc1,> 99.5 µM
6,Nc1cccc(NC(=O)c2cc(Cl)cc(NC(=O)OCc3ccccc3)c2)n1,> 99.5 µM
7,O=C(Nc1ccc2c(c1)CNC2)c1c(Br)cc(Cl)c2[nH]ncc12,9.14 µM
8,NCc1cc(NC(=O)c2cc(Cl)cc(NC(=O)OCc3ccccc3)c2)cc(-c2ccc(OCC(=O)O)nc2)c1,> 25 µM
9,CC(C)[C@H]1C(=O)O[C@@H]1C(=O)O,> 99.5 µM
10,Cn1cc(Nc2ccc(S(=O)(=O)Nc3ccc(Cl)cc3C(=O)O)cn2)cn1,> 99.5 µM
11,Cc1ccc(-n2nc(C(=O)Nc3cccc(CN)c3)ccc2=O)cc1Cl,> 99.5 µM
12,O=C(N[C@@H](C(=O)NCc1ccncc1)c1ccc(OCc2ccccc2)cc1)OCc1ccccc1,> 99.5 µM
13,Cc1cc(F)cc(N(C)C(=O)c2ccc(C3(CN)CC3)cc2)c1,> 99.5 µM
14,c1cc(C2CCN(Cc3c[nH]c4ccccc34)CC2)c2ccncc2c1,24.6 µM
15,O=C(Nc1cc(Cl)cc(C(=O)Nc2ccc3c(c2)OCCNC3)c1)OCc1ccccc1,15.2 µM
16,CC(C)c1cc(S(=O)(=O)N[C@H](C(=O)Nc2cccc(CN)c2)c2ccc(OCc3ccccc3)cc2)on1,> 99.5 µM
17,O=C(/C=C/c1ccccc1CN1CCCCC1)C(=O)N1CCOCC1,> 198 µM
18,NCc1cc(NS(=O)(=O)c2ccc(Oc3ccccc3Cl)cc2)ccc1Cl,> 99.5 µM
19,O=C(Nc1cc(Cl)cc(C(=O)Nc2ccc(CC3CCNCC3)cc2)c1)OCc1ccccc1,5.23 µM
20,Cn1ncc(C(=O)Nc2cc(CCCN)ccn2)c1O,> 25 µM
21,CCCCNC(=O)[C@H](Nc1ccc2c(c1)CNC2)c1cc(Cl)cc(C2CC2)c1,0.057 µM and 0.03 µM
22,NCc1cccc(NC(=O)c2cc(C3CCCCC3)nc3ccc(F)cc23)c1,> 99.5 µM

# Results, then the compound that gave them:
row,IC50,SMILES
1,> 99.5 µM,N#CC[C@H](N)c1cccc(NC(=O)c2cc(Cl)cc(NC(=O)OCc3ccccc3)c2)c1
2,> 99.5 µM,CNC(=O)C[C@H](Nc1cccc(F)n1)c1cc(Cl)cc(Br)c1
3,66.3 µM and 82.1 µM,NCc1cccc(NC(=O)[C@@H](NC(=O)OCc2ccccc2)C(C2CCC2)C2CCC2)c1
4,> 99.5 µM,CC(C)c1occ(C(F)(F)F)c1C(=O)Nc1cccc(CN)c1
5,> 99.5 µM,CCSc1nnc(SCCn2nc3ccccn3c2=O)s1
6,0.888 µM and 0.889 µM,NCc1ccc(-c2csc3cc(C(=O)Nc4ccc5c(c4)CNC5)ccc23)cc1
7,> 99.5 µM,O=C(O)C[C@H]1CCCN1C(=O)c1cc(Cl)cc(NC(=O)OCc2ccccc2)c1
8,9.55 µM,O=C(Nc1ccc2c(c1)CNC2)c1cc(Cl)cc2nn[nH]c12
9,> 99.5 µM,Cc1ccc(CN(C)C)cc1NC(=O)[C@@H](NC(=O)OCc1ccccc1)c1ccc(OCc2ccccc2)cc1
10,> 99.5 µM,Cn1cc(-c2ccc([C@@H](NC(=O)OCc3ccccc3)C(=O)Nc3cccc(CN)c3)cc2)cn1
11,> 99.5 µM,CCc1cc(COc2ccc(S(=O)(=O)Nc3ccc(Cl)cc3C(=O)O)cc2)no1
12,0.312 µM,O=C(Nc1ccc2c(c1)CNC2)c1cc(Cl)cc2[nH]c(-c3ncnn3C3CC3)nc12
13,> 99.5 µM,O=C(Nc1ccc(-n2nn[nH]c2=O)cc1)c1cc(Cl)cc(C2CC2)c1
14,> 99.5 µM,CC(=O)N1CCC([C@H](NC(=O)OCc2ccccc2)C(=O)Nc2cccc(CN)c2)CC1
15,> 99.5 µM,CCn1ccnc(N[C@@H](Cc2c[nH]c3ccccc23)C(N)=O)c1=O
16,> 25 µM,O=C(Nc1ccc2c(c1)CNC2)c1ccc2cc[nH]c2c1
17,> 99.5 µM,CC(C)c1nc2c(C(=O)Nc3cccc(-c4nnn[nH]4)c3)cccc2[nH]1
18,> 99.5 µM,c1ccc(-c2ncc(CN3CCC(c4nc5ccccc5s4)CC3)[nH]2)cc1
19,> 99.5 µM,NCc1ccccc1NC(=O)c1cc(Cl)cc(NC(=O)OCc2ccccc2)c1

row,IC50,SMILES
1,> 99.5 µM,O=C(Nc1cc(Cl)cc(C(=O)N[C@]2(c3nnn[nH]3)CCOC2)c1)OCc1ccccc1
2,14.4 µM,CC(C)NC(=O)[C@H](Nc1ccc2c(c1)CNC2)c1cc(F)cc2[nH]ncc12
3,94.3 µM,CC1(C)CCC([C@@H](NC(=O)OCc2ccccc2)C(=O)Nc2cccc(CN)c2)CC1
4,> 99.5 µM,O=C(Nc1ccc2c(c1)CCCN2)c1cc(Cl)cc2[nH]ncc12
5,64.5 µM,NCc1cccc(NC(=O)[C@H](NS(=O)(=O)Cc2ccccc2)c2ccc(OCc3ccccc3)cc2)c1
6,> 99.5 µM,O=C(O)c1cc(Cl)ccc1NS(=O)(=O)c1ccc(OCc2cccnc2)cc1
7,> 99.5 µM,Cc1nc(-c2ccc([C@@H](NC(=O)OCc3ccccc3)C(=O)Nc3cccc(CN)c3)cc2)cs1
8,> 99.5 µM,O=C(Nc1ccc2c(c1)CNC2)c1ccncc1
9,0.177 µM and 0.082 µM and 0.137 µM,Cc1c(C(=O)Nc2cc([C@H]3CCOC3)ccn2)cc(C2CC2)n1C
10,> 99.5 µM,c1cc2sccc2c(N2CCN(Cc3ccc4cn[nH]c4c3)CC2)n1
11,> 99.5 µM,NCc1cccc(NC(=O)[C@@H](Cc2ccccc2)NC(=O)OCc2ccccc2)c1
12,55.6 µM,NCc1cccc(NC(=O)c2c(F)c(Cl)cc(NC(=O)OCc3ccccc3)c2F)c1
13,> 99.5 µM,O=c1[nH]c2cccc(N3CCN(Cc4c[nH]c5ccccc45)CC3)c2o1
14,40.3 µM,O=C(Nc1cc(Cl)cc(C(=O)Nc2n[nH]c3c2CNC3)c1)OCc1ccccc1
15,17.3 µM,Cc1ccc(COc2ccc(S(=O)(=O)Nc3ccc(Cl)cc3C(=O)O)cc2)cc1
16,4.41 µM,CCn1ncc2c(C(=O)Nc3ccc4c(c3)CNC4)cc(C)nc21
17,> 99.5 µM,O=C(C(=O)N1CCOCC1)c1c[nH]c2ccccc12
18,84.1 µM,NCc1cccc(NC(=O)[C@H](NC(=O)OCc2ccccc2)c2cccc(-c3ccc(S(N)(=O)=O)cc3)c2)c1
19,> 99.5 µM,Cc1cc(OCc2ccccc2)ccc1NS(=O)(=O)c1ccc(Cl)cc1C(=O)O
